Experimental data from PubChem BioAssay (NCI).
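48-hour exposure; five concentrations; linearly interpolated endpoints. TGI marks complete inhibition of growth.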

How the values were obtained:
Test in all cases: NCI tumour cell line growth inhibition, 48 h
A498 renal = test system: A498 renal
CCRF-CEM leukemia = test system: CCRF-CEM leukemia
COLO 205 colon = test system: COLO 205 colon
DLD-1 colon = test system: DLD-1 colon
DMS 114 small cell lung = test system: DMS 114 small cell lung
EKVX NSCLC = test system: EKVX NSCLC
HCC-2998 colon = test system: HCC-2998 colon
HCT-116 colon = test system: HCT-116 colon
HCT-15 colon = test system: HCT-15 colon
HOP-18 NSCLC = test system: HOP-18 NSCLC
HT29 colon = test system: HT29 colon
IGROV1 ovarian = test system: IGROV1 ovarian
K-562 leukemia = test system: K-562 leukemia
KM12 colon = test system: KM12 colon
KM20L2 colon = test system: KM20L2 colon
M19-MEL melanoma = test system: M19-MEL melanoma
MCF7 breast = test system: MCF7 breast
NCI-H226 lung = test system: NCI-H226 lung
NCI-H460 lung = test system: NCI-H460 lung
NCI/ADR-RES ovarian = test system: NCI/ADR-RES ovarian
OVCAR-4 ovarian = test system: OVCAR-4 ovarian
RPMI-8226 leukemia = test system: RPMI-8226 leukemia
RXF 393 renal = test system: RXF 393 renal
SF-268 CNS = test system: SF-268 CNS
SF-295 CNS = test system: SF-295 CNS
SF-539 CNS = test system: SF-539 CNS
SK-MEL-28 melanoma = test system: SK-MEL-28 melanoma
SK-MEL-5 melanoma = test system: SK-MEL-5 melanoma
SN12C renal = test system: SN12C renal
SN12K1 renal = test system: SN12K1 renal
SNB-19 CNS = test system: SNB-19 CNS
SNB-75 CNS = test system: SNB-75 CNS
SNB-78 CNS = test system: SNB-78 CNS
SW-620 colon = test system: SW-620 colon
U251 CNS = test system: U251 CNS
UACC-257 melanoma = test system: UACC-257 melanoma
UACC-62 melanoma = test system: UACC-62 melanoma
UO-31 renal = test system: UO-31 renal
XF 498 CNS = test system: XF 498 CNS
786-0 renal = test system: 786-0 renal
A549 NSCLC = test system: A549 NSCLC
ACHN renal = test system: ACHN renal
DMS 273 small cell lung = test system: DMS 273 small cell lung
HL-60(TB) leukemia = test system: HL-60(TB) leukemia
HOP-62 NSCLC = test system: HOP-62 NSCLC
LOX IMVI melanoma = test system: LOX IMVI melanoma
LXFL 529 NSCLC = test system: LXFL 529 NSCLC
M14 melanoma = test system: M14 melanoma
MALME-3M melanoma = test system: MALME-3M melanoma
MOLT-4 leukemia = test system: MOLT-4 leukemia
NCI-H23 lung = test system: NCI-H23 lung
OVCAR-5 ovarian = test system: OVCAR-5 ovarian
OVCAR-8 ovarian = test system: OVCAR-8 ovarian
RXF-631 renal = test system: RXF-631 renal
SK-MEL-2 melanoma = test system: SK-MEL-2 melanoma
SK-OV-3 ovarian = test system: SK-OV-3 ovarian
TK-10 renal = test system: TK-10 renal
CAKI-1 renal = test system: CAKI-1 renal
HOP-92 NSCLC = test system: HOP-92 NSCLC
NCI-H522 lung = test system: NCI-H522 lung
OVCAR-3 ovarian = test system: OVCAR-3 ovarian

## C=C1CC(OC)(C(O)C(=O)N[C@H]2OCO[C@H]3C2O[C@H](C[C@@H](COC)OC)C(C)(C)C3OC)O[C@H](C)[C@@H]1C (stereo partly drawn)
A498 renal
  TGI: < 0.00482 µM
CCRF-CEM leukemia
  TGI: < 0.00482 µM
COLO 205 colon
  TGI: < 0.00482 µM
DLD-1 colon
  TGI: < 0.00482 µM
DMS 114 small cell lung
  TGI: < 0.00482 µM
EKVX NSCLC
  TGI: < 0.00482 µM
HCC-2998 colon
  TGI: < 0.00482 µM
HCT-116 colon
  TGI: < 0.00482 µM
HCT-15 colon
  TGI: < 0.00482 µM
HOP-18 NSCLC
  TGI: < 0.00482 µM
HT29 colon
  TGI: < 0.00482 µM
IGROV1 ovarian
  TGI: < 0.00482 µM
K-562 leukemia
  TGI: < 0.00482 µM
KM12 colon
  TGI: < 0.00482 µM
KM20L2 colon
  TGI: < 0.00482 µM
M19-MEL melanoma
  TGI: < 0.00482 µM
MCF7 breast
  TGI: < 0.00482 µM
NCI-H226 lung
  TGI: < 0.00482 µM
NCI-H460 lung
  TGI: < 0.00482 µM
NCI/ADR-RES ovarian
  TGI: < 0.00482 µM
OVCAR-4 ovarian
  TGI: < 0.00482 µM
RPMI-8226 leukemia
  TGI: < 0.00482 µM
RXF 393 renal
  TGI: < 0.00482 µM
SF-268 CNS
  TGI: < 0.00482 µM
SF-295 CNS
  TGI: < 0.00482 µM
SF-539 CNS
  TGI: < 0.00482 µM
SK-MEL-28 melanoma
  TGI: < 0.00482 µM
SK-MEL-5 melanoma
  TGI: < 0.00482 µM
SN12C renal
  TGI: < 0.00482 µM
SN12K1 renal
  TGI: < 0.00482 µM
SNB-19 CNS
  TGI: < 0.00482 µM
SNB-75 CNS
  TGI: < 0.00482 µM
SNB-78 CNS
  TGI: < 0.00482 µM
SW-620 colon
  TGI: 48.2 µM
U251 CNS
  TGI: < 0.00482 µM
UACC-257 melanoma
  TGI: < 0.00482 µM
UACC-62 melanoma
  TGI: < 0.00482 µM
UO-31 renal
  TGI: < 0.00482 µM
XF 498 CNS
  TGI: < 0.00482 µM

## CC1CCC[P+](Cc2ccccc2)(c2ccccc2)CC1 (stereo not drawn)
786-0 renal
  TGI: > 100 µM
A498 renal
  TGI: > 100 µM
A549 NSCLC
  TGI: > 100 µM
ACHN renal
  TGI: > 100 µM
CCRF-CEM leukemia
  TGI: > 100 µM
COLO 205 colon
  TGI: > 100 µM
DLD-1 colon
  TGI: > 100 µM
DMS 114 small cell lung
  TGI: 96.1 µM
DMS 273 small cell lung
  TGI: > 100 µM
EKVX NSCLC
  TGI: > 100 µM
HCC-2998 colon
  TGI: > 100 µM
HCT-15 colon
  TGI: > 100 µM
HL-60(TB) leukemia
  TGI: 37.8 µM
HOP-18 NSCLC
  TGI: 13 µM
HOP-62 NSCLC
  TGI: > 100 µM
IGROV1 ovarian
  TGI: > 100 µM
K-562 leukemia
  TGI: > 100 µM
KM20L2 colon
  TGI: > 100 µM
LOX IMVI melanoma
  TGI: > 100 µM
LXFL 529 NSCLC
  TGI: > 100 µM
M14 melanoma
  TGI: > 100 µM
M19-MEL melanoma
  TGI: > 100 µM
MALME-3M melanoma
  TGI: 42.6 µM
MOLT-4 leukemia
  TGI: > 100 µM
NCI-H23 lung
  TGI: > 100 µM
NCI-H460 lung
  TGI: > 100 µM
OVCAR-4 ovarian
  TGI: 90.4 µM
OVCAR-5 ovarian
  TGI: > 100 µM
OVCAR-8 ovarian
  TGI: > 100 µM
RPMI-8226 leukemia
  TGI: 51.4 µM
RXF 393 renal
  TGI: > 100 µM
RXF-631 renal
  TGI: > 100 µM
SF-268 CNS
  TGI: > 100 µM
SF-539 CNS
  TGI: > 100 µM
SK-MEL-2 melanoma
  TGI: 78.2 µM
SK-MEL-28 melanoma
  TGI: > 100 µM
SK-MEL-5 melanoma
  TGI: 35.9 µM
SK-OV-3 ovarian
  TGI: > 100 µM
SN12C renal
  TGI: > 100 µM
SNB-19 CNS
  TGI: > 100 µM
SNB-75 CNS
  TGI: > 100 µM
SNB-78 CNS
  TGI: > 100 µM
SW-620 colon
  TGI: > 100 µM
TK-10 renal
  TGI: > 100 µM
U251 CNS
  TGI: > 100 µM
UACC-62 melanoma
  TGI: > 100 µM
UO-31 renal
  TGI: > 100 µM
XF 498 CNS
  TGI: > 100 µM

## O=C(Nc1ccccc1[N+](=O)[O-])c1ccccc1
786-0 renal
  TGI: > 100 µM
A498 renal
  TGI: > 100 µM
A549 NSCLC
  TGI: > 100 µM
ACHN renal
  TGI: > 100 µM
CAKI-1 renal
  TGI: > 100 µM
COLO 205 colon
  TGI: > 100 µM
DLD-1 colon
  TGI: > 100 µM
DMS 114 small cell lung
  TGI: > 100 µM
DMS 273 small cell lung
  TGI: > 100 µM
EKVX NSCLC
  TGI: > 100 µM
HCC-2998 colon
  TGI: > 100 µM
HCT-116 colon
  TGI: > 100 µM
HCT-15 colon
  TGI: > 100 µM
HL-60(TB) leukemia
  TGI: > 100 µM
HOP-18 NSCLC
  TGI: > 100 µM
HOP-62 NSCLC
  TGI: > 100 µM
HOP-92 NSCLC
  TGI: > 100 µM
HT29 colon
  TGI: > 100 µM
IGROV1 ovarian
  TGI: > 100 µM
K-562 leukemia
  TGI: > 100 µM
KM12 colon
  TGI: > 100 µM
KM20L2 colon
  TGI: > 100 µM
LOX IMVI melanoma
  TGI: > 100 µM
LXFL 529 NSCLC
  TGI: > 100 µM
M14 melanoma
  TGI: > 100 µM
M19-MEL melanoma
  TGI: > 100 µM
MALME-3M melanoma
  TGI: > 100 µM
MOLT-4 leukemia
  TGI: > 100 µM
NCI-H226 lung
  TGI: > 100 µM
NCI-H23 lung
  TGI: > 100 µM
NCI-H460 lung
  TGI: > 100 µM
NCI-H522 lung
  TGI: > 100 µM
OVCAR-3 ovarian
  TGI: > 100 µM
OVCAR-4 ovarian
  TGI: > 100 µM
OVCAR-5 ovarian
  TGI: > 100 µM
OVCAR-8 ovarian
  TGI: > 100 µM
RPMI-8226 leukemia
  TGI: > 100 µM
RXF 393 renal
  TGI: > 100 µM
RXF-631 renal
  TGI: > 100 µM
SF-268 CNS
  TGI: > 100 µM
SF-295 CNS
  TGI: > 100 µM
SF-539 CNS
  TGI: > 100 µM
SK-MEL-28 melanoma
  TGI: > 100 µM
SK-MEL-5 melanoma
  TGI: > 100 µM
SK-OV-3 ovarian
  TGI: > 100 µM
SN12C renal
  TGI: > 100 µM
SNB-19 CNS
  TGI: > 100 µM
SNB-75 CNS
  TGI: > 100 µM
SNB-78 CNS
  TGI: > 100 µM
SW-620 colon
  TGI: > 100 µM
TK-10 renal
  TGI: > 100 µM
U251 CNS
  TGI: > 100 µM
UACC-257 melanoma
  TGI: > 100 µM
UACC-62 melanoma
  TGI: > 100 µM
UO-31 renal
  TGI: > 100 µM
XF 498 CNS
  TGI: > 100 µM
